Source: patent US20040156869A1, “2-substituted quinazolin-4-ylamine analogues” (Neurogen Corporation, priority 2002, published 2004)

Biological target: human capsaicin receptor (VR1) (Homo sapiens, UniProt Q8NER1)
Test: Capsaicin receptor binding assay ([3H]RTX competition, VR1-transfected HEK293 membranes)

Sequence of human capsaicin receptor (VR1) (Q8NER1 whole entry): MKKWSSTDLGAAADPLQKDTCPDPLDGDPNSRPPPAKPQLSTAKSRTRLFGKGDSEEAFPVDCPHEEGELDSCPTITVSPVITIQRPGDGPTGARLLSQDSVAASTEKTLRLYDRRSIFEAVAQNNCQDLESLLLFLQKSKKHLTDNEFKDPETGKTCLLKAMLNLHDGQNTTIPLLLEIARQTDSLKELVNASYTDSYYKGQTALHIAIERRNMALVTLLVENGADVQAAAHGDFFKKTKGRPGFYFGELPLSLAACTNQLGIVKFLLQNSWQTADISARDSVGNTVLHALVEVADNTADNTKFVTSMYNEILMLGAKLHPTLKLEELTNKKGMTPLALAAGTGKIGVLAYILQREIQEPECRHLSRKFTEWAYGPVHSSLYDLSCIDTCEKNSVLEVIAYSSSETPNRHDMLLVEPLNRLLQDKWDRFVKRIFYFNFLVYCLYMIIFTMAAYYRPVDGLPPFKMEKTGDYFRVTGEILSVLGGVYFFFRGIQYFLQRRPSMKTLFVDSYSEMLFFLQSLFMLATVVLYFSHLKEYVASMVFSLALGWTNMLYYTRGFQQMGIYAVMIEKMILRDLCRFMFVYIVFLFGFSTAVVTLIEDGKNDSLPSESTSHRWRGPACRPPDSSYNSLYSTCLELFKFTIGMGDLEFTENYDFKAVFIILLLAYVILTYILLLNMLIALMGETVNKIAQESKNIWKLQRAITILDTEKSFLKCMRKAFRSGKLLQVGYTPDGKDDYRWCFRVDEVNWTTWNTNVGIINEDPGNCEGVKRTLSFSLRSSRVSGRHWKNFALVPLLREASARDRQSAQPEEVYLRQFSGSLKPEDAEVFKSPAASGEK

| SMILES | Ki |
| --- | --- |
| FC(F)(F)c1ccc(Nc2nc(CN3CCN(CCN4CCCC4)CC3)nc3cc(-c4ncccc4C(F)(F)F)ccc23)cc1 [Compound 517, [2-[4-(Pyrrolidin-1-yl-ethyl)-piperazin-1-ylmethyl]-7-(3-trifluoromethyl-pyridin-2-yl)-quinazolin-4-yl]-(4-trifluoromethyl-phenyl)-amine] | < 1000 nM |
| CCC1CCCCN1CCc1nc(Nc2ccc(C(F)(F)F)cc2)c2ccc(-c3ncccc3C(F)(F)F)cc2n1 (stereo not shown) [Compound 425, [2-(2-Ethyl-piperidin-1-ylethyl)-7-(3-trifluoromethyl-pyridin-2-yl)-quinazolin-4-yl]-(4-trifluoromethyl-phenyl)-amine] | < 1000 nM |
| FC(F)(F)c1ccc(Nc2nc(CN3CCc4ccccc4C3)nc3cc(-c4ncccc4C(F)(F)F)ccc23)cn1 [Compound 352, [2-(3,4-Dihydro-1H-isoquinolin-2-ylmethyl)-7-(3-trifluoromethyl-pyridin-2-yl)-quinazolin-4-yl]-(6-trifluoromethyl-pyridin-3-yl)-amine] | < 1000 nM |
| C[C@@H]1CN(Cc2nc(Nc3ccc(S(=O)(=O)N4CCOCC4)cc3)c3ncc(-c4ncccc4Cl)cc3n2)C[C@H](C)O1 [Compound 720, [7-(3-Chloro-pyridin-2-yl)-2-(2,6-dimethyl-morpholin-4-ylmethyl)-pyrido[3,2-d]pyrimidin-4-yl]-[4-(morpholine-4-sulfonyl)-phenyl]-amine (cis)] | < 1000 nM |
| OCc1nc(Nc2ccc(C(F)(F)F)cc2)c2ncc(-c3ncccc3Cl)cc2n1 [Compound 122, [7-(3-Chloro-pyridin-2-yl)-4-(4-trifluoromethyl-phenylamino)-pyrido[3,2-d]pyrimidin-2-yl]-methanol] | < 1000 nM |
| CC(=O)c1ccc(Nc2nc(CN3C[C@@H](C)O[C@@H](C)C3)nc3cc(-c4ncccc4C(F)(F)F)cnc23)cc1 [Compound 698, 1-{4-[2-(2,6-Dimethyl-morpholin-4-ylmethyl)-7-(3-trifluoromethyl-pyridin-2-yl)-pyrido[3,2-d]pyrimidin-4-ylamino]-phenyl}-ethanone (cis)] | < 1000 nM |
| COCCNC(=O)c1nc(Nc2ccc(C(F)(F)F)cc2)c2ccc(-c3ncccc3C(F)(F)F)nc2n1 [Compound 455, 4-(4-Trifluoromethyl-phenylamino)-7-(3-trifluoromethyl-pyridin-2-yl)-pyrido[2,3-d]pyrimidine-2-carboxylic acid (2-methoxy-ethyl)-amide] | < 1000 nM |
| CC(=O)N1CCC(c2nc(Nc3ccc(C(F)(F)F)cc3)c3ccc(-c4ncccc4C(F)(F)F)cc3n2)CC1 [Compound 693, 1-{4-[4-(4-Trifluoromethyl-phenylamino)-7-(3-trifluoromethyl-pyridin-2-yl)-quinazolin-2-yl]-piperidin-1-yl}-ethanone] | < 1000 nM |
| CCOCc1nc(Nc2ccc(C(C)C)cc2)c2ccc(-c3ncccc3Cl)nc2n1 [Compound 133, [7-(3-Chloro-pyridin-2-yl)-2-ethoxymethyl-pyrido[2,3-d]pyrimidin-4-yl]-(4-isopropyl-phenyl)-amine] | < 1000 nM |
| CC(C)(C)c1ccc(Nc2nc(CO)nc3cc(-c4ncccc4C(F)(F)F)ccc23)cc1 [Compound 155, [4-(4-tert-Butyl-phenylamino)-7-(3-trifluoromethyl-pyridin-2-yl)-quinazolin-2-yl]-methanol] | < 1000 nM |
| COCCN(CCOC)Cc1nc(Nc2ccc(C(C)C)cc2)c2ccc(-c3ncccc3C)cc2n1 [Compound 719, [2-{[Bis-(2-methoxy-ethyl)-amino]-methyl}-7-(3-methyl-pyridin-2-yl)-quinazolin-4-yl]-(4-isopropyl-phenyl)-amine] | < 1000 nM |
| CC(CN(C)C)NC(=O)c1nc(Nc2ccc(C(F)(F)F)cc2)c2ccc(-c3ncccc3C(F)(F)F)nc2n1 (stereo not shown) [Compound 444, 4-(4-Trifluoromethyl-phenylamino)-7-(3-trifluoromethyl-pyridin-2-yl)-pyrido[2,3-d]pyrimidine-2-carboxylic acid (2-dimethylamino-1-methyl-ethyl)-amide] | < 1000 nM |
| CC(C)(C)c1ccc(Nc2nc(COCc3ccccc3)nc3cc(-c4ncccc4C(F)(F)F)ccc23)cc1 [Compound 43, [2-Benzyloxymethyl-7-(3-trifluoromethyl-pyridin-2-yl)-quinazolin-4-yl]-(4-tert-butyl-phenyl)-amine] | < 1000 nM |
| C[C@@H]1CN(Cc2nc(Nc3ccc(C(F)(F)F)cc3)c3ncc(-c4ncccc4C(F)(F)F)cc3n2)C[C@H](C)O1 [Compound 546, [2-(2,6-Dimethyl-morpholin-4-ylmethyl)-7-(3-trifluoromethyl-pyridin-2-yl)-pyrido[3,2-d]pyrimidin-4-yl]-(4-trifluoromethyl-phenyl)-amine (cis)] | < 1000 nM |
| CCCCCCN(C)Cc1nc(Nc2ccc(C(F)(F)F)nc2)c2ccc(-c3ncccc3C(F)(F)F)cc2n1 [Compound 376, [2-[(Hexyl-methyl-ainino)-methyl]-7-(3-trifluoromethyl-pyridin-2-yl)-quinazolin-4-yl]-(6-trifluoromethyl-pyridin-3-yl)-amine] | < 1000 nM |
| Cc1cccnc1-c1ccc2c(Nc3ccc(C(F)(F)F)cc3)nc(C3CN(C(=O)OC(C)(C)C)C3)nc2n1 [Compound 727, 3-[7-(3-Methyl-pyridin-2-yl)-4-(4-trifluoromethyl-phenylamino)-pyrido[2,3-d]pyrimidin-2-yl]-azetidine-1-carboxylic acid tert-butyl ester] | < 1000 nM |

| SMILES | Ki |
| --- | --- |
| Cc1cccnc1-c1cnc2c(Nc3ccc(C(F)(F)F)cc3)nc(CN3C[C@@H](C)O[C@@H](C)C3)nc2c1 [Compound 603, [2-(2,6-Dimethyl-morpholin-4-ylmethyl)-7-(3-methyl-pyridin-2-yl)-pyrido[3,2-d]pyrimidin-4-yl]-(4-trifluoromethyl-phenyl)-amine (cis)] | < 1000 nM |
| OCC1CCN(Cc2nc(Nc3ccc(C(F)(F)F)cc3)c3ccc(-c4ncccc4C(F)(F)F)cc3n2)CC1 [Compound 495, {1-[4-(4-Trifluoromethyl-phenylamino)-7-(3-trifluoromethyl-pyridin-2-yl)-quinazolin-2-ylmethyl]-piperidin-4-yl}-methanol] | < 1000 nM |
| CCCOCc1cc(Nc2ccc(C(F)(F)F)cc2)c2ccc(-c3ncccc3C(F)(F)F)nc2n1 [Compound 313, [2-Propoxymethyl-7-(3-trifluoromethyl-pyridin-2-yl)-[1,8]naphthyridin-4-yl]-(4-trifluoromethyl-phenyl)-amine] | < 1000 nM |
| COCc1nc(Nc2ccc(Cl)c(F)c2)c2ccc(-c3ncccc3C(F)(F)F)nc2n1 [Compound 292, (4-Chloro-3-fluoro-phenyl)-[2-methoxymethyl-7-(3-trifluoromethyl-pyridin-2-yl)-pyrido[2,3-d]pyrimidin-4-yl]-amine] | < 1000 nM |
| C[C@H]1CN(Cc2nc(Nc3ccc(C(C)(C)C)nc3)c3ccc(-c4ncccc4Cl)cc3n2)C[C@H](C)O1 [Compound 605, (S,S)-(6-tert-Butyl-pyridin-3-yl)-[7-(3-chloro-pyridin-2-yl)-2-(2,6-dimethyl-morpholin-4-ylmethyl)-quinazolin-4-yl]-amine] | < 1000 nM |
| C[C@@H]1CN(Cc2nc(Nc3ccc(C#N)cc3)c3ccc(-c4ncccc4Cl)cc3n2)C[C@@H](C)O1 [Compound 630, (R,R)-4-[7-(3-Chloro-pyridin-2-yl)-2-(2,6-dimethyl-morpholin-4-ylmethyl)-quinazolin-4-ylamino]-benzonitrile] | < 1000 nM |
| CCN(CC)CCCC(C)NC(=O)c1nc(Nc2ccc(C(F)(F)F)cc2)c2ccc(-c3ncccc3C(F)(F)F)nc2n1 (stereo not shown) [Compound 446, 4-(4-Trifluoromethyl-phenylamino)-7-(3-trifluoromethyl-pyridin-2-yl)-pyrido[2,3-d]pyrimidine-2-carboxylic acid (4-diethylamino-1-methyl-butyl)-amide] | < 1000 nM |
| C[C@@H]1CN(Cc2nc(Nc3ccc(C(F)(F)F)cc3)c3ccc(-c4ncccc4Cl)cc3n2)C[C@H](C)O1 [Compound 598, [7-(3-Chloro-pyridin-2-yl)-2-(2,6-dimethyl-morpholin-4-ylmethyl)-quinazolin-4-yl]-(4-trifluoromethyl-phenyl)-amine (cis)] | < 1000 nM |
| Cc1cc(Nc2nc(COCC(C)C)nc3nc(-c4ncccc4C(F)(F)F)ccc23)ccc1F [Compound 253, (4-Fluoro-3-methyl-phenyl)-[2-isobutoxymethyl-7-(3-trifluoromethyl-pyridin-2-yl)-pyrido[2,3-d]pyrimidin-4-yl]-amine] | < 1000 nM |
| CCC(=O)N1CCC(c2nc(Nc3ccc(C(F)(F)F)cc3)c3ccc(-c4ncccc4C(F)(F)F)cc3n2)CC1 [Compound 694, 1-{4-[4-(4-Trifluoromethyl-phenylamino)-7-(3-trifluoromethyl-pyridin-2-yl)-quinazolin-2-yl]-piperidin-1-yl}-propan-1-one] | < 1000 nM |
| CC(C)COCc1nc(Nc2ccc(C(F)(F)F)nc2)c2ccc(-c3ncccc3C(F)(F)F)nc2n1 [Compound 165, [2-Isobutoxymethyl-7-(3-trifluoromethyl-pyridin-2-yl)-pyrido[2,3-d]pyrimidin-4-yl]-(6-trifluoromethyl-pyridin-3-yl)-amine] | < 1000 nM |
| Cc1cccnc1-c1ccc2c(Nc3ccc(C(C)C)cc3)nc(CN(C)C)nc2c1 [Compound 711, [2-Dimethylaminomethyl-7-(3-methyl-pyridin-2-yl)-quinazolin-4-yl]-(4-isopropyl-phenyl)-amine] | < 1000 nM |
| CCN(CC)CCCOCc1nc(Nc2ccc(C(F)(F)F)cc2)c2ccc(-c3ncccc3C(F)(F)F)cc2n1 [Compound 115, [2-(3-Diethylamino-propoxymethyl)-7-(3-trifluoromethyl-pyridin-2-yl)-quinazolin-4-yl]-(4-trifluoromethyl-phenyl)-amine] | < 1000 nM |
| CC(C)c1ccc(Nc2nc(CN3CCO[C@@H](C)C3)nc3cc(-c4ncccc4Cl)ccc23)cc1 [Compound 648, (S)-[7-(3-Chloro-pyridin-2-yl)-2-(2-methyl-morpholin-4-ylmethyl)-quinazolin-4-yl]-(4-isopropyl-phenyl)-amine] | < 1000 nM |
| CC(C)COCc1cc2nc(-c3ncccc3C(F)(F)F)ccc2c(Nc2ccc(C(F)(F)F)cc2)n1 [Compound 296, [7-Isobutoxymethyl-2-(3-trifluoromethyl-pyridin-2-yl)-[1,6]naphthyridin-5-yl]-(4-trifluoromethyl-phenyl)-amine] | < 1000 nM |
